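Step 1: Grow cells in 96-well plates. Step 2: Expose to compound for 48 hours at 5 concentrations. Step 3: Interpolate endpoints linearly; if unreached, use highest concentration. Abbreviation: GI50, concentration required for 50% inhibition of growth.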 Activity calls are given as the source filed them. Rule as the data show it: active = GI50 up to about 1.1 µM and inactive = higher.
Key:
Assay in all cases: inhibition of tumour cell growth, NCI panel, 48 h
MOLT-4 = test system: MOLT-4
SK-OV-3 = test system: SK-OV-3
BT-549 = test system: BT-549
SNB-19 = test system: SNB-19
M14 = test system: M14
Malme-3M = test system: Malme-3M
SF-268 = test system: SF-268
NCI/ADR-RES = test system: NCI/ADR-RES
SNB-75 = test system: SNB-75
NCI-H226 = test system: NCI-H226
HT-29 = test system: HT-29
SK-MEL-28 = test system: SK-MEL-28
PC-3 = test system: PC-3
UACC-62 = test system: UACC-62
OVCAR-3 = test system: OVCAR-3
NCI-H23 = test system: NCI-H23
SF-295 = test system: SF-295
UACC-257 = test system: UACC-257
K562 = test system: K562
HL-60 = test system: HL-60

Measured: GI50

O=S1(=O)C[C@H](NCc2ccccc2)[C@H](NCc2ccccc2)C1
inactive: MOLT-4 23.8 µM | SK-OV-3 > 100 µM | BT-549 94.2 µM | SNB-19 > 100 µM | M14 > 100 µM | Malme-3M > 100 µM | SF-268 > 100 µM | NCI/ADR-RES 61.5 µM | SNB-75 > 100 µM | NCI-H226 > 100 µM | HT-29 > 100 µM | SK-MEL-28 > 100 µM | PC-3 56.5 µM | UACC-62 > 100 µM | OVCAR-3 > 100 µM | NCI-H23 > 100 µM | SF-295 > 100 µM | UACC-257 > 100 µM | K562 54.5 µM

CSc1ccccc1P(c1ccccc1SC)c1ccccc1SC
inactive: MOLT-4 > 100 µM | SK-OV-3 > 100 µM | BT-549 > 100 µM | SNB-19 > 100 µM | M14 > 100 µM | Malme-3M > 100 µM | SF-268 > 100 µM | NCI/ADR-RES > 100 µM | NCI-H226 > 100 µM | SK-MEL-28 > 100 µM | UACC-62 > 100 µM | NCI-H23 > 100 µM | SF-295 > 100 µM | K562 > 100 µM

CCCCOc1ccc2c(c1)CC[C@@H]1[C@@H]2CC[C@]2(C)C(=O)N(CCCC)C(=O)C[C@@H]12
inactive: MOLT-4 30.4 µM | SK-OV-3 > 100 µM | BT-549 87.9 µM | SNB-19 > 100 µM | M14 > 100 µM | Malme-3M > 100 µM | NCI/ADR-RES > 100 µM | SNB-75 > 100 µM | NCI-H226 > 100 µM | HT-29 > 100 µM | PC-3 25.1 µM | HL-60 44.4 µM | UACC-62 > 100 µM | OVCAR-3 > 100 µM | NCI-H23 > 100 µM | SF-295 > 100 µM | K562 6.37 µM

COc1c(OC)c(OC)c2c(c1OC)c(=O)c1ccccc1n2C [MELICOPICINE]
inactive: MOLT-4 51.1 µM | SK-OV-3 > 100 µM | BT-549 > 100 µM | SNB-19 > 100 µM | M14 > 100 µM | SF-268 > 100 µM | NCI/ADR-RES 73.5 µM | SNB-75 > 100 µM | NCI-H226 > 100 µM | HT-29 > 100 µM | SK-MEL-28 > 100 µM | PC-3 > 100 µM | HL-60 57.4 µM | UACC-62 > 100 µM | OVCAR-3 > 100 µM | NCI-H23 > 100 µM | SF-295 > 100 µM | UACC-257 > 100 µM | K562 > 100 µM

CC(C)(C)N(Cc1ccoc1)C(=O)/C=C\[S+]([O-])c1ccccc1 (configuration not stated)
inactive: MOLT-4 22.5 µM | SK-OV-3 24 µM | BT-549 10.7 µM | SNB-19 28.3 µM | M14 17.2 µM | SF-268 30.1 µM | NCI/ADR-RES 21.2 µM | NCI-H226 25.9 µM | HT-29 22.9 µM | SK-MEL-28 21.8 µM | PC-3 10.6 µM | HL-60 12.7 µM | UACC-62 20 µM | OVCAR-3 13.3 µM | NCI-H23 12.9 µM | SF-295 29.9 µM | UACC-257 19.9 µM | K562 26.6 µM

COc1ccc(N2C(=O)C3c4[nH]c5ccc(F)cc5c4C4CCC(C(C)(C)C)CC4C3C2=O)cc1 (configuration not stated)
inactive: MOLT-4 > 10 µM | SK-OV-3 > 10 µM | SNB-19 > 10 µM | M14 7.85 µM | Malme-3M > 10 µM | SF-268 8.28 µM | NCI/ADR-RES 9.08 µM | SNB-75 1.84 µM | NCI-H226 > 10 µM | HT-29 6.28 µM | SK-MEL-28 > 10 µM | PC-3 7.33 µM | HL-60 > 10 µM | UACC-62 7.43 µM | OVCAR-3 > 10 µM | NCI-H23 > 10 µM | SF-295 6.04 µM

COc1ccc(N[C@H](C[S+]([O-])c2ccc(C)cc2)C(F)(F)C(F)(F)F)cc1 (some centres not stated)
inactive: MOLT-4 > 100 µM | SK-OV-3 44.1 µM | BT-549 85.1 µM | SNB-19 35.8 µM | M14 97.3 µM | Malme-3M > 100 µM | SF-268 52.8 µM | NCI/ADR-RES > 100 µM | SNB-75 21 µM | NCI-H226 31 µM | HT-29 > 100 µM | SK-MEL-28 > 100 µM | HL-60 > 100 µM | UACC-62 43 µM | OVCAR-3 > 100 µM | NCI-H23 43.5 µM | SF-295 62.4 µM | UACC-257 > 100 µM | K562 > 100 µM

O=C(/C=C1\Nc2ncccc2N=C1CC(=O)c1ccccc1)c1ccccc1
inactive: MOLT-4 3.4 µM | SK-OV-3 12 µM | BT-549 2.71 µM | SNB-19 7.69 µM | M14 7.35 µM | Malme-3M 37.4 µM | SF-268 2.53 µM | NCI/ADR-RES 4.56 µM | SNB-75 20.4 µM | HT-29 6.89 µM | SK-MEL-28 32.3 µM | PC-3 10.1 µM | HL-60 13.5 µM | UACC-62 2.84 µM | OVCAR-3 1.66 µM | NCI-H23 23.1 µM | SF-295 4.44 µM | UACC-257 65.6 µM | K562 5.11 µM
